Data from publication PMC11878239, “Biochemical investigations using mass spectrometry to monitor JMJD6-catalysed hydroxylation of multi-lysine containing bromodomain-derived substrates” (RSC Chemical Biology, 2025).
Entries after “also recorded” stand apart in the source; their conditions may differ.

Target: T1, full-length His6-JMJD6 (Homo sapiens, UniProt Q6NYC1)
T1 construct: An enzyme mixture (10 μL) containing full-length His6-JMJD6 (5 μM; final concentration: 0.05 μM); made in house; host or cells: Escherichia coli BL21 (DE3), pET-28a(+) plasmid
Experiment: SPE-MS time-course of JMJD6-catalysed hydroxylation of BRD-derived peptides
Assay type: biochemical
Details: 0.05 μM JMJD6, 2 μM peptide, 2OG 200 μM, FAS 2 μM, LAA 100 μM, Tris 50 mM pH 7.5
Method: Fig. 2 JMJD6-catalysed hydroxylation of homologous 40 mer peptides derived from bromodomain-containing proteins BRD2, BRD3, and BRD4. (a)–(c) Red MS spectra: JMJD6-catalysed hydroxylation after 10 min of (a) BRD2_520–559, (b) BRD3_463–502, and (c) BRD4_511–550. Black MS spectra: no enzyme controls. (d)–(f) JMJD6-catalysed hydroxylation of (d) BRD2_520–559, (e) BRD3_463–502, and (f) BRD4_511–550 showing the relative abundance of the non-hydroxylated substrate (orange circles), mono-hydroxylated product (green squares), di-hydroxylated product (purple triangles) and tri-hydroxylated product (light blue diamonds) over time. Data are means of three independent runs (n = 3; means ± SD).
The JMJD6-catalysed hydroxylation of the BRD-derived substrate peptide was monitored at ambient temperature by SPE-MS using a RapidFire RF 365 high-throughput sampling robot (Agilent) attached to an iFunnel Agilent 6550 accurate mass quadrupole time-of-flight (Q-TOF) mass spectrometer, which was operated in the positive ionization mode. Assay samples were aspirated under vacuum for 0.4 s, then loaded onto a C4 solid phase extraction (SPE) cartridge. After loading, the C4 SPE cartridge was washed with 0.1%v/v aqueous formic acid to remove non-volatile buffer salts (5 s, 1.5 mL min^−1). The peptide was eluted from the SPE cartridge with 0.1%v/v aqueous formic acid in 75/25v/v acetonitrile/water into the mass spectrometer (5 s, 1.6 mL min^−1) and the SPE cartridge re-equilibrated with 0.1%v/v aqueous formic acid (1 s, 1.25 mL min^−1).
Peaks corresponding to the m/z +5 charge states of the BRD-derived substrate peptide and the hydroxylated product peptides were extracted from the ion chromatogram and integrated using RapidFire Integrator 4.3.0 (Agilent). Peak area data were exported into Microsoft Excel and used to calculate the relative abundance of the mono-hydroxylated product peptide using the following equation:
% of mono-hydroxylated product peptide = 100 × (integral of mono-hydroxylated product peptide)/(integral of non-hydroxylated substrate peptide + sum of integrals of all hydroxylated product peptides). Note that for the time-period used to calculate initial reaction velocities, negligible amounts of multi-hydroxylated product peptide were observed (<5%); therefore, the sum of integrals of all hydroxylated product peptides ≈ the integral of the mono-hydroxylated product peptide.

Sequence: LAELQEQLKAVHEQLAALSQPQQNKPKKKEKDKKEKKKEK [BRD4_511–550, 40-mer peptide fragment derived from human BRD4, JMJD6 substrate, prepared by SPPS]
- number of hydroxylation products observed (+16 Da mass shifts) (initial time-course, n = 3): two
- hydroxylation by JMJD6 (in words) (time-course, SPE-MS): efficiently hydroxylated by isolated recombinant JMJD6; also recorded: mono-hydroxylated more efficiently than BRD3_463–502 whilst showing substantially lower levels of di-hydroxylation and no tri-hydroxylation by comparison with BRD2_520–559; also recorded: multiple hydroxylations
